Test results from ChEMBL document CHEMBL5543109, “Novel β-Hairpin Antimicrobial Peptide Containing the β-Turn Sequence of -NG- and the Tryptophan Zippers Facilitate Self-Assembly into Nanofibers, Exhibiting Excellent Antimicrobial Performance” (J Med Chem, 2024).
In brackets after ≈: the same amount, converted by molar mass. Residues, ends and D or L forms follow the SMILES beside them.

Key:
Type in all cases: functional
Staphylococcus aureus [1] = experiment: Antibacterial activity against methicillin resistant Staphylococcus aureus incubated for 18 hrs by broth microdilution method
Staphylococcus aureus [2] = experiment: Antibacterial activity against methicillin resistant Staphylococcus aureus 113 incubated for 18 hrs by broth microdilution method
Staphylococcus aureus [3] = experiment: Antibacterial activity against Staphylococcus aureus S794 incubated for 18 hrs by broth microdilution method
Staphylococcus aureus [4] = experiment: Antibacterial activity against Staphylococcus aureus S125 incubated for 18 hrs by broth microdilution method
Staphylococcus aureus [5] = experiment: Antibacterial activity against methicillin resistant Staphylococcus aureus 75 incubated for 18 hrs by broth microdilution method
Staphylococcus aureus [6] = experiment: Antibacterial activity against Staphylococcus aureus incubated for 18 hrs by broth microdilution method
Staphylococcus aureus [7] = experiment: Antibacterial activity against kanamycin resistant Staphylococcus aureus incubated for 18 hrs by broth microdilution method
Staphylococcus aureus [8] = experiment: Antibacterial activity against rifampicin resistant Staphylococcus aureus incubated for 18 hrs by broth microdilution method
Escherichia coli [9] = experiment: Antibacterial activity against Escherichia coli incubated for 18 hrs by broth microdilution method
Escherichia coli [10] = experiment: Antibacterial activity against kanamycin resistant Escherichia coli incubated for 18 hrs by broth microdilution method
Escherichia coli [11] = experiment: Antibacterial activity against rifampicin resistant Escherichia coli incubated for 18 hrs by broth microdilution method
Staphylococcus aureus [12] = experiment: Antibacterial activity against Staphylococcus aureus ATCC 25923 incubated for 18 hrs by broth microdilution method
Bacillus subtilis = experiment: Antibacterial activity against Bacillus subtilis ATCC 23857 incubated for 18 hrs by broth microdilution method
[13] = system: Staphylococcus epidermidis; experiment: Antibacterial activity against Staphylococcus epidermidis ATCC 12228 incubated for 18 hrs by broth microdilution method
Klebsiella pneumoniae = experiment: Antibacterial activity against Klebsiella pneumoniae ATCC 700603 incubated for 18 hrs by broth microdilution method
Escherichia coli [14] = experiment: Antibacterial activity against Escherichia coli ATCC 25922 incubated for 18 hrs by broth microdilution method
Pseudomonas aeruginosa = experiment: Antibacterial activity against Pseudomonas aeruginosa ATCC 27853 incubated for 18 hrs by broth microdilution method

## CN[C@@H]1[C@H](O[C@H]2[C@H](O[C@H]3[C@H](O)[C@@H](O)[C@H](N=C(N)N)[C@@H](O)[C@@H]3N=C(N)N)O[C@@H](C)[C@]2(O)C=O)O[C@@H](CO)[C@H](O)[C@H]1O [STREPTOMYCIN]
Staphylococcus aureus [1]
  MIC: 32 µM (≈ 18.6 µg/mL)
Staphylococcus aureus [2]
  MIC: 64 µM (≈ 37.2 µg/mL)
Staphylococcus aureus [3]
  MIC: 128 µM (≈ 74.4 µg/mL)
Staphylococcus aureus [4]
  MIC: 32 µM (≈ 18.6 µg/mL)
Staphylococcus aureus [5]
  MIC: 32 µM (≈ 18.6 µg/mL)
Staphylococcus aureus [6]
  MIC: 0.5 µM (≈ 0.291 µg/mL)
Staphylococcus aureus [7]
  MIC: 4 µM (≈ 2.33 µg/mL)
Staphylococcus aureus [8]
  MIC: 2 µM (≈ 1.16 µg/mL)
Escherichia coli [9]
  MIC: 4 µM (≈ 2.33 µg/mL)
Escherichia coli [10]
  MIC: 64 µM (≈ 37.2 µg/mL)
Escherichia coli [11]
  MIC: 2 µM (≈ 1.16 µg/mL)

## CO[C@H]1/C=C/O[C@@]2(C)Oc3c(C)c(O)c4c(O)c(c(/C=N/N5CCN(C)CC5)c(O)c4c3C2=O)NC(=O)/C(C)=C\C=C\[C@H](C)[C@H](O)[C@@H](C)[C@@H](O)[C@@H](C)[C@H](OC(C)=O)[C@@H]1C [RIFAMPIN]
Staphylococcus aureus [12]
  MIC: < 1 µM
Bacillus subtilis
  MIC: < 1 µM
[13]
  MIC: < 1 µM
Klebsiella pneumoniae
  MIC: 64 µM (≈ 52.7 µg/mL)
Escherichia coli [14]
  MIC: 16 µM (≈ 13.2 µg/mL)
Pseudomonas aeruginosa
  MIC: 32 µM (≈ 26.3 µg/mL)
Staphylococcus aureus [1]
  MIC: 256 µM (≈ 211 µg/mL)
Staphylococcus aureus [2]
  MIC: 0.5 µM (≈ 0.411 µg/mL)
Staphylococcus aureus [3]
  MIC: 32 µM (≈ 26.3 µg/mL)
Staphylococcus aureus [4]
  MIC: 0.5 µM (≈ 0.411 µg/mL)
Staphylococcus aureus [5]
  MIC: 256 µM (≈ 211 µg/mL)
Staphylococcus aureus [6]
  MIC: 0.5 µM (≈ 0.411 µg/mL)
Staphylococcus aureus [7]
  MIC: 4 µM (≈ 3.29 µg/mL)
Staphylococcus aureus [8]
  MIC: 64 µM (≈ 52.7 µg/mL)
Escherichia coli [9]
  MIC: 16 µM (≈ 13.2 µg/mL)
Escherichia coli [10]
  MIC: 32 µM (≈ 26.3 µg/mL)
Escherichia coli [11]
  MIC: 256 µM (≈ 211 µg/mL)

## NC[C@H]1O[C@H](O[C@H]2[C@H](O)[C@@H](O[C@H]3O[C@H](CO)[C@@H](O)[C@H](N)[C@H]3O)[C@H](N)C[C@@H]2N)[C@H](O)[C@@H](O)[C@@H]1O [KANAMYCIN]
Staphylococcus aureus [12]
  MIC: < 1 µM
Bacillus subtilis
  MIC: < 1 µM
[13]
  MIC: > 128 µM
Klebsiella pneumoniae
  MIC: 64 µM (≈ 31 µg/mL)
Escherichia coli [14]
  MIC: 8 µM (≈ 3.88 µg/mL)
Pseudomonas aeruginosa
  MIC: > 128 µM
Staphylococcus aureus [1]
  MIC: 256 µM (≈ 124 µg/mL)
Staphylococcus aureus [2]
  MIC: 256 µM (≈ 124 µg/mL)
Staphylococcus aureus [3]
  MIC: 16 µM (≈ 7.75 µg/mL)
Staphylococcus aureus [4]
  MIC: 256 µM (≈ 124 µg/mL)
Staphylococcus aureus [5]
  MIC: 256 µM (≈ 124 µg/mL)
Staphylococcus aureus [6]
  MIC: 0.5 µM (≈ 0.242 µg/mL)
Staphylococcus aureus [7]
  MIC: 256 µM (≈ 124 µg/mL)
Staphylococcus aureus [8]
  MIC: 4 µM (≈ 1.94 µg/mL)
Escherichia coli [9]
  MIC: 4 µM (≈ 1.94 µg/mL)
Escherichia coli [10]
  MIC: 256 µM (≈ 124 µg/mL)
Escherichia coli [11]
  MIC: 4 µM (≈ 1.94 µg/mL)

## C[C@@H](O)[C@H]1C(=O)N2C(C(=O)O)=C(S[C@@H]3CN[C@H](C(=O)N(C)C)C3)[C@H](C)[C@H]12 [MEROPENEM]
Staphylococcus aureus [1]
  MIC: 32 µM (≈ 12.3 µg/mL)
Staphylococcus aureus [2]
  MIC: 0.5 µM (≈ 0.192 µg/mL)
Staphylococcus aureus [3]
  MIC: 0.5 µM (≈ 0.192 µg/mL)
Staphylococcus aureus [4]
  MIC: 0.5 µM (≈ 0.192 µg/mL)
Staphylococcus aureus [5]
  MIC: 128 µM (≈ 49.1 µg/mL)
Staphylococcus aureus [6]
  MIC: 0.5 µM (≈ 0.192 µg/mL)
Staphylococcus aureus [7]
  MIC: 0.5 µM (≈ 0.192 µg/mL)
Staphylococcus aureus [8]
  MIC: 0.5 µM (≈ 0.192 µg/mL)
Escherichia coli [9]
  MIC: 0.5 µM (≈ 0.192 µg/mL)
Escherichia coli [10]
  MIC: 0.5 µM (≈ 0.192 µg/mL)
Escherichia coli [11]
  MIC: 0.5 µM (≈ 0.192 µg/mL)

## C[C@@H](O)[C@H]1C(=O)N2C(C(=O)O)=C(SCCNC=N)C[C@H]12 [IMIPENEM ANHYDROUS]
Staphylococcus aureus [1]
  MIC: 32 µM (≈ 9.58 µg/mL)
Staphylococcus aureus [2]
  MIC: 0.5 µM (≈ 0.15 µg/mL)
Staphylococcus aureus [3]
  MIC: 0.5 µM (≈ 0.15 µg/mL)
Staphylococcus aureus [4]
  MIC: 0.5 µM (≈ 0.15 µg/mL)
Staphylococcus aureus [5]
  MIC: 256 µM (≈ 76.6 µg/mL)
Staphylococcus aureus [6]
  MIC: 0.5 µM (≈ 0.15 µg/mL)
Staphylococcus aureus [7]
  MIC: 0.5 µM (≈ 0.15 µg/mL)
Staphylococcus aureus [8]
  MIC: 0.5 µM (≈ 0.15 µg/mL)
Escherichia coli [9]
  MIC: 0.5 µM (≈ 0.15 µg/mL)
Escherichia coli [10]
  MIC: 8 µM (≈ 2.39 µg/mL)
Escherichia coli [11]
  MIC: 0.5 µM (≈ 0.15 µg/mL)

## CC[C@H](C)[C@H](N)C1=N[C@H](C(=O)N[C@@H](CC(C)C)C(=O)N[C@H](CCC(=O)O)C(=O)N[C@H](C(=O)N[C@H]2CCCCNC(=O)[C@H](CC(N)=O)NC(=O)[C@@H](CC(=O)O)NC(=O)[C@H](Cc3cnc[nH]3)NC(=O)[C@@H](Cc3ccccc3)NC(=O)[C@H]([C@@H](C)CC)NC(=O)[C@@H](CCCN)NC2=O)[C@@H](C)CC)CS1 [BACITRACIN] (HELM PEPTIDE1{[CC[C@H](C)[C@H](N)C1=N[C@H](C(=O)[*:2])CS1].L.[dE].I.K.[NCCC[C@@H](N[*:1])C(=O)[*:2]].I.[dF].H.[dD].N}$PEPTIDE1,PEPTIDE1,5:R3-11:R2$$$V2.0)
Staphylococcus aureus [12]
  MIC: 32 µM (≈ 45.5 µg/mL)
Bacillus subtilis
  MIC: > 128 µM
[13]
  MIC: 16 µM (≈ 22.8 µg/mL)
Klebsiella pneumoniae
  MIC: > 128 µM
Escherichia coli [14]
  MIC: > 128 µM
Pseudomonas aeruginosa
  MIC: > 128 µM
Staphylococcus aureus [1]
  MIC: 0.5 µM (≈ 0.711 µg/mL)
Staphylococcus aureus [2]
  MIC: 16 µM (≈ 22.8 µg/mL)
Staphylococcus aureus [3]
  MIC: 256 µM (≈ 364 µg/mL)
Staphylococcus aureus [4]
  MIC: 8 µM (≈ 11.4 µg/mL)
Staphylococcus aureus [5]
  MIC: 0.5 µM (≈ 0.711 µg/mL)
Staphylococcus aureus [6]
  MIC: 32 µM (≈ 45.5 µg/mL)
Staphylococcus aureus [7]
  MIC: 16 µM (≈ 22.8 µg/mL)
Staphylococcus aureus [8]
  MIC: 256 µM (≈ 364 µg/mL)
Escherichia coli [9]
  MIC: 256 µM (≈ 364 µg/mL)
Escherichia coli [10]
  MIC: 256 µM (≈ 364 µg/mL)
Escherichia coli [11]
  MIC: 256 µM (≈ 364 µg/mL)
